Values quoted from earlier work as cited in US8202840B2, “Enhanced ocular neuroprotection and neurostimulation” (Minu L.L.C., priority 2005, dated 2012).

How the values were obtained:
[1] = test system: Ganglion cells in the retina (RGC); conditions: systemically administered
[2] = biological target: immunophilin FK 506-binding protein (FKBP) (Homo sapiens, UniProt P62942); conditions: in vitro
[3] = administered systemically

Sequence of immunophilin FK 506-binding protein (FKBP) (P62942 whole entry): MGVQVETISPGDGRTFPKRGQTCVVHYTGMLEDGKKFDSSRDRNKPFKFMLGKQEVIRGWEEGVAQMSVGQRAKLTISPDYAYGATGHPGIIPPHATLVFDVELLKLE

solubility in chloroform (chloroform): very soluble
solubility in ethanol (ethanol): freely soluble
solubility in methanol (methanol): very soluble
solubility in water (water): practically insoluble
binding to and inhibition of FKBP activity [2]: binds to and inhibits the activity
SMILES: C=CC[C@@H]1/C=C(\C)C[C@H](C)C[C@H](OC)[C@H]2O[C@@](O)(C(=O)C(=O)N3CCCC[C@H]3C(=O)O[C@H](/C(C)=C/[C@@H]3CC[C@@H](O)[C@H](OC)C3)[C@H](C)[C@@H](O)CC1=O)[C@H](C)C[C@@H]2OC [tacrolimus, Tacrolimus]
neuroprotection on RGC [1]: conferred neuroprotection on RGC
renal and hepatic toxicity [3]: significant renal and hepatic toxicity
